Measurements taken from US9833492B2, “Combinations of a caspase inhibitor and an antiviral agent” (INSTITUT NATIONAL DE LA SANTE ET DE LA RECHERCHE MEDICALE …, priority 2007, dated 2017).
“Also recorded” adds a separate entry of the source. Read-outs that look alike come from different tables or passages of the source. Where a SMILES comes first, the peptide text is derived from it. [ ]: non-standard residue; d: D form. The star is where a group is joined. Sta = CC(C)C[C@H](N)[C@@H](O)CC(=O)O; Isovaleryl = CC(C)CC(=O)*; Cbz = O=C(OCc1ccccc1)*; CH2F = FC*

Experiments:
[1] = test system: apoptosis; conditions: Caserta et al., 2003; cited from earlier work
[2] = test system: cells stimulated by anti-CD3; format: cell-based; conditions: human, 1 day, 50 μM
Method: FIG. 14. Analysis of the fall in the mitochondrial transmembrane potential (% Δφm low) by flow cytometry starting from cells stimulated by 1 μg/ml of anti-CD-3 in the presence or absence of different HIV antiproteases and of QVD-OPH.
(§1) In order to evaluate the change in the transmembrane potential of the inner mitochondrial membrane, the cells were labelled with a fluorescent probe DIOC6 (Molecular Probes, Invitrogen), at a concentration of 40 nM, and incubated for 15 minutes at 37° C. Viral replication was evaluated by internal labelling of the p24 viral protein using an anti-p24-PE antibody (KC-57, Coulter Corp, Beckman).
The cell toxicity was evaluated by analysis of the fall in the mitochondrial transmembrane potential (% Δφm low) using the probe DIOC6, by flow cytometry. The cells stimulated by anti-CD3 were analyzed in the same way on the day following activation.

[3] = test system: lymphocytes stimulated by 1 μg/ml of anti-CD-3; experiment: lymphocyte proliferation test with CFSE; format: cell-based, human
Method: FIG. 13. Analysis by flow cytometry of lymphocyte proliferation after 4 and 5 days' stimulation by 1 μg/ml of anti-CD-3, in the presence or absence of HIV antiproteases or of QVD-OPH.
The PBMCs are incubated in the presence of 1 μM of CFSE for 7 minutes at 37° C. The cells are taken up at 1·10^6/ml and then placed in culture and activated by an anti-CD3 at 1 μg/ml (Immunotech).
A lymphocyte proliferation study was conducted with the fluorescent probe CFSE, which allows cell division to be monitored.

[4] = test system: primary strains of the HIV-1 virus; experiment: replication of primary HIV-1 strains in CD4+ T lymphocytes (p24); format: cell-based; conditions: 1 μM
Method: FIG. 7: Graphic representation showing the effect of Q-VD-OPh on primary HIV-1 strains. In all cases (A, B and C), the CD4+ T lymphocytes were stimulated with concanavalin A and IL2 (stimulation being carried out before or during administration of Q-VD-OPh), […], immediately after infection and then 36 hours (d3) and 96 hours (d4) post-infection. A. Analysis by flow cytometry of viral replication in CD4+ T lymphocytes infected with the HIV-1Lai virus or with the serum of a chronic HIV+ patient (strain with X4/R5 dual tropism) and then cultivated in the absence or presence (+Q-VD) of Q-VD-OPh. The percentage of CD4+ cells infected by HIV was determined after intracellular labelling of the p24 viral antigen on the 5th day post-infection in the case of the HIV-Lai virus and on the 6th day post-infection in the case of the serum. […] B. Quantification of viral replication (on the left) and of cell death by measurement of mitochondrial depolarization (on the right) in CD4+ T lymphocytes infected with the serum of the chronic HIV+ patient. […]
The CD4^+ cells were incubated for 2 hours at 37° C. in the presence of 10 ng/ml of HIV-1 virus of strain Lai or 50 ng/ml of primary strains of the HIV-1 virus. […] The HIV p24 antigen, the control for the viral load, was measured in the cell culture supernatants by an ELISA test (Abbott). […]

[5] = test system: Cytochrome c, Smac/Diablo and Endonuclease G in primary CD4+ T cells infected with HIV-Lai; experiment: immunoblot of release of apoptogenic mitochondrial factors after subcellular fractionation; format: cell-based, human; conditions: 10 μM, day 5 after infection
Method: FIG. 3: Immunoblot (Western blot) showing the effect of Q-VD-OPh on mitochondrial damage resulting from viral replication. Primary CD4+ T cells were infected with HIV-Lai and stimulated with a ConA/IL-2 cocktail and then treated or not treated with 10 μM of Q-VD-OPh (QVD) and/or 10 μM of pepstatin A (PA) immediately after stimulation and then 36 hours (day 3) and 96 hours (day 4) after infection. On the 5th day post-infection, the cells were fractionated into two parts: the membrane fraction and the cytosol fraction. The relocalization of the apoptogenic factors Cytochrome c (Cyt c), Smac/Diablo and Endonuclease G (EndoG) was then evaluated by immunotransfer (Western blot). The proteins Cytochrome c, Smac/Diablo and EndoG were detected using the antibodies indicated above. The proteins Cox IV and actin detected by means of the anti-subunit IV antibodies (clone 1068 Molecular Probe) and anti-actin antibodies (SIGMA), respectively, were used as the control for the fractionation procedure and as the control for the protein load of the gel, respectively. […]
The cytosol and mitochondrial fractions were obtained by the subcellular fractionation technique based on selective permeabilization by digitonin according to Foghsgaard et al. {Foghsgaard, 2001}. […] The protein concentration of the cytosol and mitochondrial fractions was determined by the bicinchoninic acid (BCA) method (Bio-Rad). […]

[6] = test system: cells infected by HIV; conditions: cells infected by HIV (Petit et al., 2002), cited from earlier work
[7] = test system: HIV-1 virus; conditions: cited from earlier work
[8] = test system: Primary CD4 T cells infected by the viral strain HIV-Lai; experiment: Example 2: death by fall in mitochondrial transmembrane potential in infected primary CD4 T cells; format: cell-based, human; conditions: 10 μM
Method: (§2) FIG. 11. Analysis by flow cytometry of the internal viral protein p24 (A) and of the fall in the mitochondrial transmembrane potential (% Δφm low; B) on the 5th (d5) and 7th (d7) day post-infection in primary CD4+ T cells infected by the strain HIV-Lai, after stimulation by Concanavalin A and IL-2 and in the presence or absence of 10 μM of different caspase inhibitors.
as §1
(§3) Primary CD4 T cells were infected by the viral strain HIV-Lai and then stimulated by ConA/IL-2 in the presence or absence of Q-VD-OPH, Q-DEVD-OPH (casp-3 inhibitor), Q-LEDH-OPH (caspase-9 inhibitor) and Q-IETD-OPH (caspase-8 inhibitor) at 10 μM for each of the inhibitors. On days 5 and 7 post-infection, the internal p24 viral protein is measured by flow cytometry after fixation and permeabilization of the CD4 T cells. […] Death was evaluated by analysis of the fall in the mitochondrial transmembrane potential (% Δφm low) using the probe DIOC6 by flow cytometry (FIG. 11B). […]

[9] = test system: HIV viral proteins; experiment: Example 2: immunoblot of HIV viral proteins in infected primary CD4 T cells; format: cell-based, HIV-1; conditions: versus control cultures
Method: FIG. 12. Analysis by immunoblot of the quantity of HIV viral proteins produced from extracts of primary CD4 T cells infected by the strain HIV-Lai in the presence or absence of different caspase inhibitors.
20 μg extracts of total lysate prepared with 1% NP40 were boiled for 5 minutes in Laemmli buffer containing 2% SDS and 10% 2-β-mercaptoethanol, then deposited on 10-20% polyacrylamide gradient gels (Invitrogen). After transfer of the proteins, the immunoblots were incubated with the following primary antibodies: anticaspase-3, anticaspase-8 and anticaspase-9 (Cell Signaling), anti-PARP (Pharmingen) and anti-Tubulin (Santa-Cruz).
Primary CD4 T cells were infected by the viral strain HIV-Lai and then stimulated by ConA/IL-2 in the presence or absence of Q-VD-OPH, Q-DEVD-OPH (casp-3 inhibitor), Q-LEDH-OPH (caspase-9 inhibitor) and Q-IETD-OPH (caspase-8 inhibitor) at 10 μM for each of the inhibitors. On days 5 and 7 post-infection, the internal p24 viral protein is measured by flow cytometry after fixation and permeabilization of the CD4 T cells. […] Death was evaluated by analysis of the fall in the mitochondrial transmembrane potential (% Δφm low) using the probe DIOC6 by flow cytometry (FIG. 11B). […] Extracts of primary CD4 T cells infected in the presence or absence of the different caspase inhibitors as well as QVD-OPH were analyzed by immunoblot for the HIV viral proteins (FIG. 12).

[10] = test system: viral strain HIV-Lai; experiment: Example 2: internal p24 viral protein by flow cytometry with different caspase inhibitors; format: cell-based, HIV-1; conditions: 10 μM
Method: as §2, §1, §3

Q: Which inhibition of apoptosis [1] does the source give for COC(=O)CC(NC(=O)OC(C)(C)C)C(=O)CF [Boc-D-fmk, tert-butyloxycarbonyl-Asp(O-methyl)-fluoromethyl ketone] here?
A: inhibits apoptosis in a dose-dependent manner

Q: Which results are given for CC(C)(C)NC(=O)[C@@H]1CN(Cc2cccnc2)CCN1C[C@@H](O)C[C@@H](Cc1ccccc1)C(=O)N[C@H]1c2ccccc2C[C@H]1O [Indinavir]?
A: fall in Δφm [2]: 70-80%; lymphocyte proliferation (CFSE) ([3]; 50 μM, after 4 and 5 days' stimulation): block the proliferation

Q: For CC(C)(C)NC(=O)[C@@H]1C[C@@H]2CCCC[C@@H]2CN1C[C@@H](O)[C@H](Cc1ccccc1)NC(=O)[C@H](CC(N)=O)NC(=O)c1ccc2ccccc2n1 [Saquinavir], which “fall in Δφm” value [2] is on record?
A: 70-80%

Q: And the “lymphocyte proliferation (CFSE)” value [3]?
A: block the proliferation

Q: With O=c1[nH]cnc2c1ncn2[C@H]1CC[C@@H](CO)O1 [ddl] as the compound, how does the “replication of five primary HIV-1 isolates of R5 tropism” value [4] read?
A: strong inhibition of viral replication

Q: With CC(C)CC(=O)N[C@H](C(=O)N[C@H](C(=O)N[C@@H](CC(C)C)[C@@H](O)CC(=O)N[C@@H](C)C(=O)N[C@@H](CC(C)C)[C@@H](O)CC(=O)O)C(C)C)C(C)C [pepstatin A] (Isovaleryl-VV[Sta]A[Sta]-OH) as the compound, how does the “mitochondrial damage: apoptogenic factors Cytochrome C, Smac/Diablo and EndoG in the cytosol fraction” value [5] read?
A: no effect

Q: With CC(C)[C@H](NC(=O)OCc1ccccc1)C(=O)N[C@@H](C)C(=O)N[C@@H](CC(=O)O)C(=O)CF [z-VAD-fmk, N-benzyloxycarbonyl-Val-Ala-Asp-fluoromethyl ketone] (Cbz-Val-Ala-Asp-CH2F) as the compound, how does the “apoptotic phenotype (condensation and fragmentation of the nuclear chromatin)” value [6] read?
A: prevents the apoptotic phenotype

Q: And the “prevention of mitochondrial depolarization, apoptosis or cell death” value [6]?
A: does not inhibit apoptosis

Q: And the “prevention of mitochondrial depolarization, apoptosis or cell death” value ([6]; listed as zVAD-kmk)?
A: does not prevent either mitochondrial depolarization or cell death

Q: And the inhibition of apoptosis [1]?
A: inhibits apoptosis in a dose-dependent manner

Q: What about the “effect on viral replication” value ([7]; T-leukaemia cells (CEM) or PBMC exposed to HIV-1 (Chinnaiyan et al., 1997)) of the same compound?
A: increasing viral replication

Q: What about the endogenous viral replication ([7]; activated PBMCs from HIV-1-positive asymptomatic patients (Chinnaiyan et al., 1997)) of the same compound?
A: stimulating endogenous viral replication

Q: And the “inhibition of viral replication” value ([7]; in vitro (Gandhi et al., 1998; Petit et al., 2002))?
A: nor does it inhibit viral replication; also recorded: did not enable viral replication to be inhibited

Q: With Q-DEVD-OPH as the compound, how does the “death, fall in the mitochondrial transmembrane potential (% Δφm low)” value [8] read?
A: absence of effect

Q: And the “quantity of viral proteins produced” value [9]?
A: slightly lower

Q: And the “inhibition of viral replication (p24)” value ([10]; d5)?
A: weak effect

Q: What about the “inhibition of viral replication (p24)” value ([10]; d7) of the same compound?
A: absence of protection
